Laboratory results taken from patent publication US20230365608A1 (priority 2019, published 2023).

Legend:
[1] = system: Influenza strains A/WSN/33 (H1N1); assay: Influenza A/WSN/33 (H1N1) antiviral assay in A549 cells (MUNANA neuraminidase readout); format: cell-based, Influenza A virus (H1N1); human lung carcinoma A549 cells; conditions: Influenza A virus, compound 24 h before infection, 250 IU/well, 20 h infection
Protocol: (§1) EC50 [uM] as Measured Using Two Cell Lines: WSN/33 (H1N1) A549 and MDCK
1. Human lung carcinoma A549 cells (ATCC, Manassas, VA) were plated at a density of 5×10^4 cells/ml (5×10^3 cells/well) in maintenance media (Ham's F12 media supplemented with 10% FBS, 1% penicillin/streptomycin, 1% HEPES, 1% Glutamine and 1% non-essential amino acids (all Mediatech, Manassas, VA) in 96-well plates. After 24 hours, serially diluted compounds in assay media (Ham's F12 supplemented with 0.3FBS, 1% penicillin/streptomycin, 1% HEPES, 1% Glutamine and 1% non-essential amino acids) were added to cells and incubated for an additional 24 hours. Cells were infected with 250 IU/well of Influenza strains A/WSN/33 (H1N1) (Virapur, San Diego CA) and incubated for 20 h at 37° C., 5% CO2. The cell culture supernatant was aspirated off and 50 μl 25 μM 2′-(4-Methylumbelliferyl)-a-D-N-acetylneuraminic acid (MUNANA, Sigma-Aldrich) dissolved in 33 mM MES, pH 6.5 (Emerald Biosystems, Bainbridge Island, WA) was added to the cells. After incubation for 45 min at 30° C., reactions were stopped by addition of 150 μL stop solution (100 mM glycine, pH 10.5, 25% ethanol, all Sigma-Aldrich). Fluorescence was measured with excitation and emission filters of 355 and 460 nm, respectively, on a Victor X3 multi-label plate reader (Perkin Elmer, Waltham, MA). Cytotoxicity of uninfected parallel cultures was determined by addition of 100 μL CellTiter-Glo® reagent (Promega, Madison, WI), and incubation for 10 min at room temperature. Luminescence was measured on a Victor X3 multi-label plate reader.

[2] = system: Influenza strains A/WSN/33 (H1N1); assay: Influenza A/WSN/33 (H1N1) antiviral assay in MDCK cells (MUNANA neuraminidase readout); format: cell-based; conditions: Influenza A virus, in Canis lupus familiaris, compound 24 h before infection, 250 IU/well, 20 h infection
Protocol: as §1
2. Alternatively, Madin-Darby canine kidney epithelial cells (MDCK, ATCC), were plated at a density of 7.5×10^4 cells/ml (7.5×10^3 cells/well) in maintenance media (DMEM with same supplements as above) in 96-well plates. After 24 hours, serially diluted compounds in assay media (MEM supplemented with 0.3FBS, 1% penicillin/streptomycin, 1% HEPES, 1% Glutamine and 1% non-essential amino acids) were added to cells and incubated for an additional 24 hours. Cells were infected with 250 IU/well of Influenza strains A/WSN/33 (H1N1) and incubated for 20 h at 37° C., 5% CO2. The cell culture supernatant was aspirated off and 50 μL 25 μM 2′-(4-Methylumbelliferyl)-a-D-N-acetyl neuraminic acid (MUNANA, Sigma-Aldrich) dissolved in 33 mM MES, pH 6.5 (Emerald Biosystems, Bainbridge Island, WA) was added to the cells. After incubation for 45 min at 30° C., reactions were stopped by addition of 150 μl stop solution (100 mM glycine, pH 10.5, 25% ethanol, all Sigma-Aldrich). Fluorescence was measured with excitation and emission filters of 355 and 460 nm, respectively, on a Victor X3 multi-label plate reader (Perkin Elmer, Waltham, MA). Cytotoxicity of uninfected parallel cultures was determined by addition of 100 μL CellTiter-Glo® reagent (Promega, Madison, WI), and incubation for 10 min at room temperature. Luminescence was measured on a Victor X3 multi-label plate reader.

## NC(=O)c1nsc([C@@H]2O[C@H](CO)[C@@H](O)[C@H]2O)n1 [Example 1, 5-((2R,3R,4S,5R)-3,4-Dihydroxy-5-(hydroxymethyl)tetrahydrofuran-2-yl)-1,2,4-thiadiazole-3-carboxamide]
[1]
  EC50: 1.35 µM

## CC(C)[C@H](N)C(=O)OC[C@H]1O[C@@H](c2nc(C(N)=O)ns2)[C@H](O)[C@@H]1O [Example 7, ((2R,3S,4R,5R)-5-(3-Carbamoyl-1,2,4-thiadiazol-5-yl)-3,4-dihydroxytetrahydrofuran-2-yl)methyl valinate]
[1]
  EC50: 1.35 µM

## NC(=O)c1cc([C@@H]2O[C@H](CO)[C@@H](O)[C@H]2O)sn1 [Example 2, 5-((2R,3R,4S,5R)-3,4-Dihydroxy-5-(hydroxymethyl)tetrahydrofuran-2-yl)isothiazole-3-carboxamide]
[2]
  EC50: 0.32 µM
[1]
  EC50: 54.7 µM

## NC(=O)c1nc([C@@H]2O[C@H](CO)[C@@H](O)[C@H]2O)sc1F [Example 3, 2-((2R,3R,4S,5R)-3,4-Dihydroxy-5-(hydroxymethyl)tetrahydrofuran-2-yl)-5-fluorothiazole-4-carboxamide]
[2]
  EC50: 10.1 µM
[1]
  EC50: 40.7 µM

## CC(C)OC(=O)OCOP(=O)(OCOC(=O)OC(C)C)OC[C@H]1O[C@@H](c2nc(C(N)=O)ns2)[C@H](O)[C@@H]1O [Example 6]
[2]
  EC50: 1.85 µM
[1]
  EC50: 4.66 µM

## CC(C)C(=O)OC[C@H]1O[C@@H](c2nc(C(N)=O)ns2)[C@H](O)[C@@H]1O [Example 4, ((2R,3S,4R,5R)-5-(3-Carbamoyl-1,2,4-thiadiazol-5-yl)-3,4-dihydroxytetrahydrofuran-2-yl)methyl isobutyrate]
[1]
  EC50: 15.1 µM
